How the values were obtained:
HIV-1 EnvNL4-3 = assay: smFRET imaging of dually labelled HIV-1 Env on surface-immobilized virions (TIRF); format: biochemical, HIV-1NL4-3; settings: for agonist/antagonist character by smFRET (activation of HIV-1 Env): 100 μM, FIG. 10c, d; for effect of inhibitor on smFRET state distribution of HIV-1 Env: tested at concentrations 10-100-fold above the Kd (100 μM), FIG. 10
Experimental: All HIV-1 virions were generated by transfection of pNL4-3-based plasmids in HEK293T cells. Virus was harvested 24 h post-transfection and concentrated by centrifugation. Dually tagged viruses were site-specifically labelled at each peptide insert simultaneously through incubation with appropriate fluorophore conjugates and labelling enzymes. The viruses were purified away from unbound dye by density-gradient ultracentrifugation. Viruses were immobilized on streptavidin-coated quartz microscope slides, and imaged with a lab-built prism-based TIRF microscope equipped with multiple laser. Donor and acceptor fluorescence were separated with a dichroic filter, and imaged on parallel EMCCD cameras. All analysis was carried out with custom-designed Matlab software.
The tagged Envs (V1-3-Q3/V4-2-A1 and V1-3-A1/V4-2-A1) were subcloned from pNL4-3 into a pNL4-3 construct lacking reverse transcriptase (pNL4-3 ΔRT). Virus for smFRET experiments was generated by co-transfecting HEK293T cells with tagged-Env-containing pNL4-3 ΔRT and a 40-fold excess of wild-type-Env containing pNL4-3 ΔRT. Virus was harvested 24 h post-transfection and concentrated by centrifugation over a 15% sucrose cushion.
All virus labelling reactions were carried out in buffer containing 50 mM HEPES pH7.5, 10 mM MgCl2, 10 mM CaCl2. Virus containing the V1-3-Q3 and V4-2-A1 peptide insertions was labelled by incubation with 0.5 μM AlexaFluor647-cadaverine (Invitrogen), 0.5 μM Cy3-coenzyme A (Cy3-CoA), 0.65 μM transglutaminase (Sigma) (Lin et al., J Am Chem Soc 128, no. 14 (2006): 4542-3), and 5 μM AcpS (Zhou et al., ACS Chem Biol 2, no. 5 (2007): 337-46) for 2 h at 37° C. Alternatively, virus containing the V1-3-A1 and V4-2-A1 peptide insertions was labelled by incubation with 0.5 μM Cy5-CoA, 0.5 μM Cy3-CoA, and 5 μM AcpS for 2 h at 37° C. […]
Fluorescently labelled virus, containing DSPE-PEG2,000-biotin in the viral membrane was immobilized on passivated streptavidin-coated quartz microscope slides and imaged on a lab-built prism-based TIRF microscope. […] Donor and acceptor fluorescence were collected through a high-NA objective, separated with a 650DCXR dichroic filter (Chroma), and imaged on two parallel EMCCD cameras (Photometrics). Movies of surface-immobilized viruses were recorded at 25 frames/s for 40 s at room temperature. […]
All processing and analysis of fluorescence and smFRET trajectories was carried out using custom-designed Matlab (Mathworks) software. Fluorescence trajectories were extracted from the recorded movies and used to calculate FRET efficiency according to FRET=ICy5/(ICy3+ICy5), where ICy5 and ICy3 are the intensities of Cy5 and Cy3 fluorescence, respectively. […]

HIV-1 Env = HIV-1 Env (Human immunodeficiency virus type 1 group M subtype B, UniProt P03375); settings: cited from earlier work
Chain of HIV-1 Env (P03375 33-856): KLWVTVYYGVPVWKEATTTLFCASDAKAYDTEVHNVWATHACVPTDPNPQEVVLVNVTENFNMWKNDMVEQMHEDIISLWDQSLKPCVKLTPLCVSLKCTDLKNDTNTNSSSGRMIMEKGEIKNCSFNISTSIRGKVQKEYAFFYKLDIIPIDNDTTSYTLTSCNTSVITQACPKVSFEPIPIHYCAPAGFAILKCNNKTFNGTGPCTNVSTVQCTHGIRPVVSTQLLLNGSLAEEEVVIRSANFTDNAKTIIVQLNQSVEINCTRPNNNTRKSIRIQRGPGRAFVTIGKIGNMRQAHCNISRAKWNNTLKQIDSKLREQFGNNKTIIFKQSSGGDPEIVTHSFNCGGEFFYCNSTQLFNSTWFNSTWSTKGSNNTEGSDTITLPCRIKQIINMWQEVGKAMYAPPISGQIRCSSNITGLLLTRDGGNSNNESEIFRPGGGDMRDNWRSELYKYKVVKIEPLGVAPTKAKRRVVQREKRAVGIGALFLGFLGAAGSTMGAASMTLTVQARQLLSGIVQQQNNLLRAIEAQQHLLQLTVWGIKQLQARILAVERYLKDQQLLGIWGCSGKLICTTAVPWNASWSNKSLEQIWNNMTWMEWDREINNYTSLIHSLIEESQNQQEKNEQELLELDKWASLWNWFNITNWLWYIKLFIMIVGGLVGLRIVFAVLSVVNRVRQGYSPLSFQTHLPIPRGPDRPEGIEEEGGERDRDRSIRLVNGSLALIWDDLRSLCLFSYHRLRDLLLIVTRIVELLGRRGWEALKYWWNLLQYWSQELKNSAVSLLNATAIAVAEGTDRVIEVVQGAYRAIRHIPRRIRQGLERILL

SMILES: CC1(C)CC(NC(=O)C(=O)Nc2ccc(Cl)c(F)c2)CC(C)(C)N1 [JRC-II-191]
- agonist/antagonist character by smFRET (activation of HIV-1 Env) (HIV-1 EnvNL4-3): clear agonists
- effect of inhibitor on smFRET state distribution of HIV-1 Env (HIV-1 EnvNL4-3): induced an intermediate-FRET state
- inactivation of HIV-1 Env (HIV-1 Env): inactivate

SMILES: CC1(C)CC(NC(=O)C(=O)Nc2ccc(Cl)cc2)CC(C)(C)N1 [NBD-556]
- agonist/antagonist character by smFRET (activation of HIV-1 Env) (HIV-1 EnvNL4-3): clear agonists
- effect of inhibitor on smFRET state distribution of HIV-1 Env (HIV-1 EnvNL4-3): induced an intermediate-FRET state
